Measured values published in patent US6828327B2, “Macroheterocylic compounds useful as kinase inhibitors” (Ortho-McNeil Pharmaceutical, Inc., priority 2000, dated 2004).

Tests used:
PKC-γ = biological target: T1, PKC-γ (Homo sapiens, UniProt P05129); experiment: Protein Kinase C Scintillation Proximity Assay (SPA), PKC-γ; format: biochemical; conditions: inhibition value, recombinant human isozyme, 1 μM ATP
T1 construct: purchased PanVera, Madison Wis; host or cells: baculovirus expression vector
Procedure: (§1) The binding activity of a compound for Protein Kinase C (PKC) was assessed using a homogeneous Scintillation Proximity Assay according to the procedure below.
(§2) The different human PKC isozymes (were obtained from PanVera, Madison Wis. and had been prepared as recombinant enzymes produced from a baculovirus expression vector) were added to a reaction mixture containing a test compound, 20 mM HEPES (pH 7.4), 100 μM CaCl2, 10 mM MgCl2, 100 μg/mL phosphatidylserine, 20 μg/mL diacylglycerol, 1 μM ATP, 0.8 μCi (^33P)ATP, and 5 μg/mL biotinylated substrate peptide (Jing Zhao et al., J. Bio. Chem., 1998, 273, 23072). The reaction was incubated for 15 min at 30° C. Reactions were terminated by the addition of streptavidin-coated SPA beads (Amersham) in a solution containing 1 mM EGTA, 10 mM EDTA and 100 μM ATP. Beads were allowed to settle overnight and the plates read in a Wallac MICROBETA scintillation counter (PerkinElmer Life sciences, Wellesley, Mass.).
(§3) Values for inhibition of various PKC isozymes and GSK 3-β by certain compounds of the invention tested in the PKC SPA and GSK 3-β assays are shown in Table 1.

PKC α = PKC α (Homo sapiens, UniProt P17252); experiment: Protein Kinase C Scintillation Proximity Assay (SPA), PKC-α; format: biochemical; set-up: purchased PanVera, Madison Wis; host or cells: baculovirus expression vector; conditions: inhibition value, recombinant human isozyme, 1 μM ATP
Procedure: as §1
The reaction was incubated for 15 min at 30° C. Reactions were terminated by the addition of streptavidin-coated SPA beads (Amersham) in a solution containing 1 mM EGTA, 10 mM EDTA and 100 μM ATP. Beads were allowed to settle overnight and the plates read in a Wallac MICROBETA scintillation counter (PerkinElmer Life sciences, Wellesley, Mass.).

PKC-βII = biological target: T2, PKC-βII (Homo sapiens, UniProt P05771); experiment: Protein Kinase C Scintillation Proximity Assay (SPA), PKC-βII; format: biochemical; conditions: inhibition value, recombinant human isozyme, 1 μM ATP
T2 construct: purchased PanVera, Madison Wis; host or cells: baculovirus expression vector
Procedure: as §1, §2, §3

GSK 3-β = biological target: T3, GSK 3-β (Oryctolagus cuniculus, UniProt G1T8E2); experiment: Glycogen Synthase Kinase 3-β Assay; format: biochemical, rabbit; conditions: for IC50: inhibition value, recombinant rabbit GSK 3-β, PPI-2 substrate; for GSK 3-β % @ 0.1 μM: at 0.1 μM; for GSK 3-β % @ 1 μM: at 1 μM
T3 construct: purchased New England Biolabs, Beverly Mass
Procedure: The inhibitory activity of a compound against Glycogen Synthase Kinase 3-β (GSK 3-β) activity was assessed using a recombinant rabbit GSK 3-β according to the procedure below.
The mixture was reacted for 90 minutes at 30° C. to allow phosphorylation of the PPI-2 protein and then the protein in the reaction was precipitated using 10% trichloroacetic acid (TCA). The precipitated protein was collected on filter plates (MultiScreen-DV, Millipore, Bedford Mass.), which were subsequently washed. Finally, the radioactivity was quantified using a TopCount Scintillation Counter (Packard, Meridian Conn.). […] Staurosporine or Valproate (both available from several commercial sources), known inhibitors of GSK-3-β, were used as a positive control for screening.

PKC-βI = biological target: T4, PKC-βI (Homo sapiens, UniProt P05771); experiment: Protein Kinase C Scintillation Proximity Assay (SPA), PKC-βI; format: biochemical; conditions: inhibition value, recombinant human isozyme, 1 μM ATP
T4 construct: purchased PanVera, Madison Wis; host or cells: baculovirus expression vector
Procedure: as §1, §2, §3

L6 muscle cells = experiment: Cell-Based GSK 3-β Assay (glycogen content of L6 muscle cells); conditions: for 14C-Glucose Incorporation (dpm): L6 cells, 2 hours
Procedure: Glycogen content of L6 muscle cells was measured according to the method described in Berger and Hayes, Anal. Biochem., 1998, 261, 159-163.
Briefly, L6 cells were serum starved overnight in alpha-MEM containing 0.1%. On the following day, cells were washed three times with 300 μL KRPH buffer (150 mM NaCl, 5 mM KCl, 2.9 mM Na2HPO4, 1.25 mM MgSO4, 1.2 mM CaCl2, 10 mM HEPES, pH 7.4) and labeled with 200 μL alpha-MEM containing 5.5 mM ^14C-Glucose (0.1 μCi) in the presence of vehicle (DMSO) or compounds. After 2 hours, cells were washed three times with ice-cold PBS and glycogen was precipitated for 2 hours using ice-cold 66% EtOH. Precipitated glycogen was then washed three times with ice-cold 66% EtOH and ^14C-glycogen was quantified using a TopCount (Packard).
Compounds were tested in separate experiments at the dose levels shown. Where shown, the 0.0 μM dose was used as a control.

T2 sequence (P05771 1-673 isoform P05771-2): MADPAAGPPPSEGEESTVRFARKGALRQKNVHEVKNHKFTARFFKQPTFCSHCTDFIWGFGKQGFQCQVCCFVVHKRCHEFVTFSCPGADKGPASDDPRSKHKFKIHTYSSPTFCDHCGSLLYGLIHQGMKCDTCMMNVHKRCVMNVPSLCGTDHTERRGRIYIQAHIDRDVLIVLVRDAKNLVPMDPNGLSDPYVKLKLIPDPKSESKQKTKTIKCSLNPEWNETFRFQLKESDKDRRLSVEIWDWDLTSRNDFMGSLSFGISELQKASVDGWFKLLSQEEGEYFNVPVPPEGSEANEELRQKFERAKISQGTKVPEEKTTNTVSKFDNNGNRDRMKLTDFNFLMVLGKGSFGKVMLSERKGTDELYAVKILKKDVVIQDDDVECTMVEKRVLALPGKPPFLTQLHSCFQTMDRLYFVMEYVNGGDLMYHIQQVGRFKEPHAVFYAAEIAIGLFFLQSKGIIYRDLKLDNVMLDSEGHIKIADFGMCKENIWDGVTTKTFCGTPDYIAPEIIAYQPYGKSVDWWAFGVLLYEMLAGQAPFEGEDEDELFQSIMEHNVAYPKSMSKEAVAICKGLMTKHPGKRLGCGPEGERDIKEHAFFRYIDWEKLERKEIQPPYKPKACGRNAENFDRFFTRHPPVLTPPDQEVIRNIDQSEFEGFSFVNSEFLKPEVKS
T4 sequence (P05771 whole entry): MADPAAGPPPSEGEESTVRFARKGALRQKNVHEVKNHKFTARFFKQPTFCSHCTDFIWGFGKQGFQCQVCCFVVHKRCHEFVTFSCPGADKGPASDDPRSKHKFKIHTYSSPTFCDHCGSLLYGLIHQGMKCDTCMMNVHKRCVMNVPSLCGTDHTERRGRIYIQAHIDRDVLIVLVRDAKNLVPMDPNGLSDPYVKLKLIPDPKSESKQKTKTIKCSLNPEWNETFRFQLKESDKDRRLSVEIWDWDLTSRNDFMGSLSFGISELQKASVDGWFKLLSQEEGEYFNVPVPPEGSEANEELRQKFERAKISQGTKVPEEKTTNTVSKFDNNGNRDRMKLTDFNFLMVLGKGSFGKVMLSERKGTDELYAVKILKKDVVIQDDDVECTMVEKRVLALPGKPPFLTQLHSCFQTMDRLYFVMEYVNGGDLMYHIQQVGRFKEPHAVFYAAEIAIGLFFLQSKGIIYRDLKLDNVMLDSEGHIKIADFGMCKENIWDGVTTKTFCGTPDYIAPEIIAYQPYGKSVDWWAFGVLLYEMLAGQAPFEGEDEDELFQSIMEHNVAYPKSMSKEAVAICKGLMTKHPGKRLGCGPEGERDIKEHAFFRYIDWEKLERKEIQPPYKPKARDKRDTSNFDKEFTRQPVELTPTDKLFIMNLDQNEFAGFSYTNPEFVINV
T3 sequence (G1T8E2 1-432): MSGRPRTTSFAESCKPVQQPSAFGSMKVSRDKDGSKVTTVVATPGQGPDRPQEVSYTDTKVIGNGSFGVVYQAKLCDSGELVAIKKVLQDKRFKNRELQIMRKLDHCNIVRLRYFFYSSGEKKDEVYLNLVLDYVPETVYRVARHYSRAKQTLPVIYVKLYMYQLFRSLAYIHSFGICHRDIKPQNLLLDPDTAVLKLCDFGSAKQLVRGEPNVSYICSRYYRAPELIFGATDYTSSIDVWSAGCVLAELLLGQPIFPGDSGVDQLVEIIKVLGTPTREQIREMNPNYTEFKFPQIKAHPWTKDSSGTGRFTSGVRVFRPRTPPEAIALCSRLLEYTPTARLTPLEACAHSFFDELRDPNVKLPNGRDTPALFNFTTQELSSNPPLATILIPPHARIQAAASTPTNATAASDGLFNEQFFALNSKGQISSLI

Row | IC50 (PKC-γ) [nM] | IC50 (PKC α) [nM] | IC50 (PKC-βII) [nM] | IC50 (GSK 3-β) [nM] | Structure (SMILES) | other results
1 | > 100000 | > 100000 | > 100000 | 33 | O=C1NC(=O)C2=C1c1cn(c3ncccc13)CCOCCOCCOCCOCCOCCn1cc2c2cccnc21 [Cpd 3] | IC50 (PKC-βI): > 100000 nM
2 | 3460 | 1220 | 99 | 102 | O=C1NC(=O)C2=C1c1cn(c3ccccc13)CCOCCOCCn1cc2c2ccccc21 [Cpd 4] | IC50 (PKC-βI): 1590 nM
3 | 1350 | 412 | 16 | 49 | O=C1NC(=O)C2=C1c1cn(c3ccccc13)CCOCCOCCOCCn1cc2c2ccccc21 [Cpd 5] | 14C-Glucose Incorporation (dpm) (L6 muscle cells; dose 0.01 μM): 2884 dpm; 14C-Glucose Incorporation (dpm) (L6 muscle cells; dose 0.1 μM): 2988 dpm; 14C-Glucose Incorporation (dpm) (L6 muscle cells; dose 0.3 μM): 3339 dpm; 14C-Glucose Incorporation (dpm) (L6 muscle cells; dose 3 μM, 0.0 μM control Cpd 1 1640, Cpd 2 2078): 3438 dpm; 14C-Glucose Incorporation (dpm) (L6 muscle cells; dose 10 μM, 0.0 μM control Cpd 1 1640, Cpd 2 2078): 4700 dpm; glycogen synthesis in L6 skeletal muscle cells (L6 muscle cells; upon exposure to compound, result in words): increased glycogen synthesis; IC50 (PKC-βI): 349 nM
4 | 4000 | 2560 | 212 | 45 | O=C1NC(=O)C2=C1c1cn(c3ccccc13)CCOCCOCCOCCOCCn1cc2c2ccccc21 [Cpd 6] | IC50 (PKC-βI): 1480 nM
5 | 3260 | 2590 | 285 | 33 | O=C1NC(=O)C2=C1c1cn(c3ccccc13)CCOCCOCCOCCOCCOCCn1cc2c2ccccc21 [Cpd 7] | IC50 (PKC-βI): 3070 nM
6 | 783 | 1530 | 288 | 233 | O=C1NC(=O)C2=C1c1cn(c3ccccc13)Cc1cccc(c1)Cn1cc2c2cccnc21 [Cpd 8] | IC50 (PKC-βI): 1780 nM
7 | 228 | 319 | 35 | 164 | O=C1NC(=O)C2=C1c1cn(c3ccccc13)Cc1cccc(n1)Cn1cc2c2cccnc21 [Cpd 9] | IC50 (PKC-βI): 338 nM
8 | 150 | 20 | 8 | 33 | CCN1CCOCCn2cc(c3ccccc32)C2=C(C(=O)NC2=O)c2cn(c3ccccc23)CCOCC1 [Cpd 12] | 
9 | 370 | 50 | 40 |  | CN1CCOCCn2cc(c3ccccc32)C2=C(C(=O)NC2=O)c2cn(c3ccccc23)CCOCC1 [Cpd 13] | 
10 | 34 | 19 | 15 | 76 | CC(C)N1CCOCCn2cc(c3ccccc32)C2=C(C(=O)NC2=O)c2cn(c3ccccc23)CCOCC1 [Cpd 14] | 
11 | 22 | 42 | 27 | 93 | CN1CCN(C)CCn2cc(c3ccccc32)C2=C(C(=O)NC2=O)c2cn(c3ccccc23)CCN(C)CC1 [Cpd 15] | 
12 |  |  | 63 |  | CN1CCOCCn2cc(c3ccccc32)C2=C(C(=O)NC2=O)c2nn(c3ccccc23)CCOCC1 [Cpd 16] | GSK 3-β % @ 0.1 μM (GSK 3-β): 37% @ 0.1 μM
13 |  |  | 385 |  | CCN1CCOCCn2cc(c3ccccc32)C2=C(C(=O)NC2=O)c2nn(c3ccccc23)CCOCC1 [Cpd 17] | GSK 3-β % @ 0.2 μM (GSK 3-β; at 0.2 μM): 31% @ 0.2 μM
14 |  |  |  | 9200 | CCN1CCOCCn2cc(c3cccnc32)C2=C(C(=O)NC2=O)c2cn(c3ncccc23)CCOCC1 [Cpd 18] | 
15 |  |  |  | 110 | O=C1NC(=O)C2=C1c1cn(c3ncccc13)CCOCCSCCOCCn1cc2c2cccnc21 [Cpd 19] | 
16 |  |  |  | 610 | O=C1NC(=O)C2=C1c1cn(c3ncccc13)CCCCCNCCCCCn1cc2c2cccnc21 [Cpd 20] | 
17 |  |  |  | 1440 | CCN1CCCCCn2cc(c3cccnc32)C2=C(C(=O)NC2=O)c2cn(c3ncccc23)CCCCC1 [Cpd 21] | 
18 |  |  |  |  | O=C1NC(=O)C2=C1c1cn(c3ncccc13)CCCCCNCCCCn1cc2c2cccnc21 [Cpd 22] | GSK 3-β % @ 1 μM (GSK 3-β): 30% @ 1 μM
19 |  |  |  |  | CCN1CCCCCn2cc(c3cccnc32)C2=C(C(=O)NC2=O)c2cn(c3ncccc23)CCCC1 [Cpd 23] | GSK 3-β % @ 1 μM (GSK 3-β): 46% @ 1 μM
20 |  |  |  | 210 | O=C1NC(=O)C2=C1c1cn(c3ncccc13)CCCCc1cccc(n1)CCCCn1cc2c2cccnc21 [Cpd 24] | 
21 |  |  |  | 80 | O=C1CCCCCCn2cc(c3cccnc32)C2=C(C(=O)NC2=O)c2cn(c3ncccc23)CCCC1 [Cpd 25] | 
22 |  |  |  | 90 | O=C1CCCCn2cc(c3cccnc32)C2=C(C(=O)NC2=O)c2cn(c3ncccc23)CCCC1 [Cpd 26] | 
23 |  |  |  | 1180 | O=C1NC(=O)C2=C1c1cn(c3ncccc13)C[C@H](O)CCCCCC[C@@H](O)Cn1cc2c2cccnc21 [Cpd 27] | 
24 |  |  |  |  | O=C1NC(=O)C2=C1c1cn(c3ncccc13)CCOCCOCCn1cc2c2cccnc21 [Cpd 28] | GSK 3-β % @ 0.5 μM (GSK 3-β; at 0.5 μM): 48% @ 0.5 μM
25 |  |  | 369 |  | COCCN1CCOCCn2cc(c3ccccc32)C2=C(C(=O)NC2=O)c2nn(c3ccccc23)CCOCC1 [Cpd 29] | GSK 3-β % @ 0.1 μM (GSK 3-β): 30% @ 0.1 μM
26 |  |  | 11 | 64 | O=C1NC(=O)C2=C1c1cn(c3ccccc13)CCOCCN(CCO)CCOCCn1cc2c2ccccc21 [Cpd 30] | 
27 | 24 | 14 | 7 |  | CN1CCCn2cc(c3ccccc32)C2=C(C(=O)NC2=O)c2cn(c3ccccc23)CCOCCOCC1 [Cpd 31] | 
